{"source": "ChEMBL document CHEMBL6096682", "about": "“Discovery of D-Ring-Contracted Artemisinin as a Potent Hydrophobic Tag for Targeted Protein Degradation” (J Med Chem, 2025)", "key": {"[1]": {"target": "T1, Estrogen receptor (Homo sapiens) (UniProt P03372)", "T1 sequence (whole entry)": "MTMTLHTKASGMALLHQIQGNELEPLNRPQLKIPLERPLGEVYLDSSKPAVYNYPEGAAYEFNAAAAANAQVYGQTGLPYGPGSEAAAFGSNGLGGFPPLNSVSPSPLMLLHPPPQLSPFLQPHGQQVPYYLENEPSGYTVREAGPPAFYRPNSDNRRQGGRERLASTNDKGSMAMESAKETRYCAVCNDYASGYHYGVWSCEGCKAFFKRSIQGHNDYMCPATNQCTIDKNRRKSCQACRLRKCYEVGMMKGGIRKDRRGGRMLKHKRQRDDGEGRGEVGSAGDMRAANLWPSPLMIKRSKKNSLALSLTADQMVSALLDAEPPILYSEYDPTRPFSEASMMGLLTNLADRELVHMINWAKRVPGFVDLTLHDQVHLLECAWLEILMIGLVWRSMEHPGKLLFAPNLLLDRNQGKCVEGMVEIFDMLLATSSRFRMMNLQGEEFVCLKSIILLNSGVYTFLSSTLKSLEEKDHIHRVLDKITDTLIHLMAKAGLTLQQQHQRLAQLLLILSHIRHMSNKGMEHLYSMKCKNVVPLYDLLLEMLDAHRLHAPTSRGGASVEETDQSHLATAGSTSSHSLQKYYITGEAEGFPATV", "test": "HyT degrader activity at ER-alpha in human MCF7 cells assessed as induction of ER-alpha degradation by measuring decrease in ER-alpha level at 10 uM incubated for 72 hrs by western blot analysis", "format": "cell-based"}, "[2]": {"test_system": "MCF7", "test": "Antitumor activity against human MCF7 cells xenografted in Balb/c mouse assessed as reduction in tumor weight at 5 to 10 mg/kg, iv administered every 3 days and measured on day 21", "format": "functional, organism-based", "details": "dose 5-10 mg/kg, time 21.0 day"}, "[3]": {"test_system": "MCF7", "test": "Antitumor activity against human MCF7 cells xenografted in Balb/c mouse assessed as tumor volume at 10 mg/kg, iv administered every 3 days and measured for 21 days (reference value: 165.5 mm3)", "format": "functional", "details": "time 21 day"}, "[4]": {"target": "T1, Estrogen receptor (Homo sapiens)", "test": "HyT degrader activity at ER-alpha in human MCF7 cells assessed as induction of ER-alpha degradation by measuring decrease in ER-alpha level at 10 uM incubated for 48 hrs followed by drug wash-out and measured after 48 hrs by western blot analysis", "format": "cell-based"}, "[5]": {"target": "T1, Estrogen receptor (Homo sapiens)", "test": "Binding affinity to ER-alpha in human MCF7 cells assessed as increase in thermal stability of protein at 100 uM incubated for 1 hr followed by exposure to heat at 25 to 66 degC for 3 mins and incubation for 3 mins at room temperature by thermal shift binding assay", "format": "cell-based", "details": "time 66.0 min"}, "[6]": {"target": "T1, Estrogen receptor (Homo sapiens)", "test": "HyT degrader activity at ER-alpha in human MCF7 cells assessed as induction of ER-alpha degradation by measuring residual ER-alpha level at 10 uM pretreated with HSP70 inhibitor, VER-155008 for 2 hrs followed by incubation with compound for 12 hrs by immunoblot analysis", "format": "cell-based"}, "[7]": {"target": "T1, Estrogen receptor (Homo sapiens)", "test": "HyT degrader activity at ER-alpha in human MCF7 cells assessed as induction of ER-alpha degradation by measuring decrease in ER-alpha level at 10 uM incubated for 48 hrs by western blot analysis", "format": "cell-based", "design": "scale not given: the % may be the effect or the level left"}, "[8]": {"test": "Hepatotoxicity in Balb/c mouse xenografted with human MCF7 cells assessed as effect on AST level in serum at 5 to 10 mg/kg, iv measured after 24 hrs", "format": "toxicity, organism-based", "details": "in vivo, dose 5-10 mg/kg"}, "[9]": {"target": "Estrogen receptor beta (Homo sapiens) (UniProt Q92731)", "sequence (Q92731 whole entry)": "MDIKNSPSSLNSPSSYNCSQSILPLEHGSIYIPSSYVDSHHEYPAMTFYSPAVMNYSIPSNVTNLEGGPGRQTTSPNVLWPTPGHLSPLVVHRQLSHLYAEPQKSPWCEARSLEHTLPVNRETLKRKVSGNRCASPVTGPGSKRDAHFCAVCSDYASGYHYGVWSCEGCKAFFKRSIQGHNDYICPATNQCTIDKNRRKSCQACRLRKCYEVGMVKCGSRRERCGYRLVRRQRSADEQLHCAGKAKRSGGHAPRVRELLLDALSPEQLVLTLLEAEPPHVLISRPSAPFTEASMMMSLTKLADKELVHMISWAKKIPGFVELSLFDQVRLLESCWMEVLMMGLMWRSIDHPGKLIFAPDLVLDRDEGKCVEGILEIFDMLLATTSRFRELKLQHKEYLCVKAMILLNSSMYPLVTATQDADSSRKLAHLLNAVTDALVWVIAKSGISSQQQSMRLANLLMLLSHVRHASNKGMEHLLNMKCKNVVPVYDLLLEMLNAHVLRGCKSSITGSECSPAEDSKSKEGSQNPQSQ", "test": "Binding affinity to ER-beta in human MCF7 cells at 100 uM incubated for 1 hr followed by exposure to heat at 25 to 66 degC for 3 mins and incubation for 3 mins at room temperature by thermal shift binding assay", "format": "cell-based", "details": "time 66.0 min"}, "[10]": {"test": "Toxicity in Balb/c mouse xenografted with human MCF7 cells assessed as effect on lymphocytes count at 5 to 10 mg/kg, iv measured after 24 hrs", "format": "organism-based", "details": "in vivo, dose 5-10 mg/kg"}, "[11]": {"target": "T1, Estrogen receptor (Homo sapiens)", "test": "HyT degrader activity at ER-alpha in human MCF7 cells assessed as induction of ER-alpha degradation by measuring decrease in ER-alpha level at 10 uM incubated for 48 hrs followed by drug wash-out and measured after 72 hrs by western blot analysis", "format": "cell-based"}, "[12]": {"test": "Toxicity in Balb/c mouse xenografted with human MCF7 cells assessed as effect on liver morphological changes at 5 to 10 mg/kg, iv measured after 24 hrs by Hematoxylin-Eosin staining based analysis", "format": "organism-based", "details": "in vivo, dose 5-10 mg/kg"}, "[13]": {"target": "T1, Estrogen receptor (Homo sapiens)", "test": "(§1) HyT degrader activity at ER-alpha in human MCF7 cells assessed as induction of ER-alpha degradation by measuring decrease in ER-alpha level at 10 uM pretreated with 26S proteasome inhibitor, MG-132 for 2 hrs followed by incubation with compound for 12 hrs by immunoblot analysis", "format": "cell-based"}, "[14]": {"target": "T1, Estrogen receptor (Homo sapiens)", "test": "HyT degrader activity at ER-alpha in human MCF7 cells assessed as induction of ER-alpha degradation by measuring decrease in ER-alpha level at 10 uM pretreated with NAE inhibitor, MLN4924 for 2 hrs followed by incubation with compound for 12 hrs by immunoblot analysis", "format": "cell-based"}, "[15]": {"target": "T1, Estrogen receptor (Homo sapiens)", "test": "as §1, with “MG-132 and NAE inhibitor, MLN4924” for “MG-132”, “for 6” for “for 2”, “for 24” for “for 12”", "format": "cell-based"}, "[16]": {"target": "T1, Estrogen receptor (Homo sapiens)", "test": "HyT degrader activity at ER-alpha in human MCF7 cells assessed as induction of ER-alpha degradation by measuring residual ER-alpha level at 10 uM incubated for 12 hrs by immunoblot analysis", "format": "cell-based"}, "[17]": {"test": "Toxicity in Balb/c mouse xenografted with human MCF7 cells assessed as effect on lungs morphological changes at 5 to 10 mg/kg, iv measured after 24 hrs by Hematoxylin-Eosin staining based analysis", "format": "organism-based", "details": "in vivo, dose 5-10 mg/kg"}, "[18]": {"test_system": "MCF7", "test": "Antiproliferative activity against human MCF7 cells assessed as reduction in cell viability incubated for 48 hrs by MTT assay relative to control", "format": "functional"}, "[19]": {"test": "Toxicity in Balb/c mouse xenografted with human MCF7 cells assessed as effect on platelets count at 5 to 10 mg/kg, iv measured after 24 hrs", "format": "organism-based", "details": "in vivo, dose 5-10 mg/kg"}, "[20]": {"test": "Toxicity in Balb/c mouse xenografted with human MCF7 cells assessed as effect on heart morphological changes at 5 to 10 mg/kg, iv measured after 24 hrs by Hematoxylin-Eosin staining based analysis", "format": "organism-based", "details": "in vivo, dose 5-10 mg/kg"}, "[21]": {"test": "Toxicity in Balb/c mouse xenografted with human MCF7 cells assessed as effect on white blood cells count at 5 to 10 mg/kg, iv measured after 24 hrs", "format": "organism-based", "details": "in vivo, dose 5-10 mg/kg"}, "[22]": {"test": "Nephrotoxicity in Balb/c mouse xenografted with human MCF7 cells assessed as effect on blood urea nitrogen level in serum at 5 to 10 mg/kg, iv measured after 24 hrs", "format": "toxicity, organism-based", "details": "in vivo, dose 5-10 mg/kg"}, "[23]": {"test": "Nephrotoxicity in Balb/c mouse xenografted with human MCF7 cells assessed as effect on creatinine level in serum at 5 to 10 mg/kg, iv measured after 24 hrs", "format": "toxicity, organism-based", "details": "in vivo, dose 5-10 mg/kg"}, "[24]": {"target": "T1, Estrogen receptor (Homo sapiens)", "test": "HyT degrader activity at ER-alpha in human MCF7 cells assessed as induction of ER-alpha degradation by measuring residual ER-alpha level at 10 uM pretreated with HSP70 inhibitor, VER-155008 and HSP90 inhibitor, 17-AAG for 2 hrs followed by incubation with compound for 12 hrs by immunoblot analysis", "format": "cell-based"}, "[25]": {"test": "Toxicity in Balb/c mouse xenografted with human MCF7 cells assessed as effect on kidneys morphological changes at 5 to 10 mg/kg, iv measured after 24 hrs by Hematoxylin-Eosin staining based analysis", "format": "organism-based", "details": "in vivo, dose 5-10 mg/kg"}}, "note": "Calls of active or inactive are those of the source. The rule behind the calls is not given here."}
{"molecule": "C[C@@H]1CCC2[C@]34OO[C@](C)(CCC13)O[C@@H]4O[C@]2(C)C(=O)NCCCOc1ccc(C(=O)c2c(-c3ccc(O)cc3)sc3cc(O)ccc23)cc1", "note": "(stereo not given in full)", "values": [{"measurement": "Activity", "setting": "[1]", "value": "Active"}, {"measurement": "Activity", "setting": "[2]", "value": "Active"}, {"measurement": "Activity", "setting": "[3]", "value": 65.1, "unit": "mm3"}, {"measurement": "Activity", "setting": "[4]", "value": "Active"}, {"measurement": "Activity", "setting": "[5]", "value": "Active"}, {"measurement": "Activity", "setting": "[6]", "value": 71.9, "unit": "%"}, {"measurement": "Activity", "setting": "[7]", "value": "> 99", "unit": "%"}, {"measurement": "Activity", "setting": "[8]", "value": "Non-toxic"}, {"measurement": "Activity", "setting": "[9]", "value": "Active; Weak Affinity"}, {"measurement": "Activity", "setting": "[10]", "value": "Non-toxic"}, {"measurement": "Activity", "setting": "[11]", "value": "inactive"}, {"measurement": "Activity", "setting": "[12]", "value": "Non-toxic"}, {"measurement": "Activity", "setting": "[13]", "value": "inactive"}, {"measurement": "Activity", "setting": "[14]", "value": "inactive"}, {"measurement": "Activity", "setting": "[15]", "value": "inactive"}, {"measurement": "Activity", "setting": "[16]", "value": 23.5, "unit": "%"}, {"measurement": "Activity", "setting": "[17]", "value": "Non-toxic"}, {"measurement": "inhibition (INH)", "setting": "[18]", "value": 73.5, "unit": "%"}, {"measurement": "Activity", "setting": "[19]", "value": "Non-toxic"}, {"measurement": "Activity", "setting": "[20]", "value": "Non-toxic"}, {"measurement": "Activity", "setting": "[21]", "value": "Non-toxic"}, {"measurement": "Activity", "setting": "[22]", "value": "Non-toxic"}, {"measurement": "Activity", "setting": "[23]", "value": "Non-toxic"}, {"measurement": "Activity", "setting": "[24]", "value": 91, "unit": "%"}, {"measurement": "Activity", "setting": "[25]", "value": "Non-toxic"}]}
